From US11338025B2, “Vaccine therapy for treatment of endometrial and ovarian cancer” (The Henry M. Jackson Foundation for the Advancement of …, priority 2016, dated 2022)
Ends that are not written are not given here.

How the values were obtained:
[1] = system: tumor-associated lymphocyte (TAL); conditions: previous studies (Peoples et al. 1998); cited from earlier work
[2] = Local reactions (LR) 48-72 hours after booster; conditions: 500 mcg peptide + 250 mcg GM-CSF
Excerpt: Therefore, to assess the use of the attenuated E39′ peptide as a booster, E39-vaccinated patients described in Example 1 were randomized to receive either E39 or E39′ as a booster to determine the effect on long-term E39-specific immunity. Patients in the VG received six intradermal E39 injections as described in Example 1 as a primary vaccination schedule (PVS). At six months (B1) and at twelve months (B2) after completion of the PVS, patients received either 500 mcg of E39′ and 250 mcg GM-CSF or 500 mcg E39 and 250 mcg of GM-CSF as a booster.
Local reactions (LR) were recorded 48-72 hours after each booster. Immune response was determined by measurement of E39 specific CTL levels using a Dextramer reagents in accordance with the manufacturer's instructions (Immudex Limited, Copenhagen, Denmark) as previously described (e.g., Tario et al. Cytometry B Clin. Cytom. 2015; 88B:6-20; Baba J. Transl Med. 2010; 8:84), at RO (baseline pre-vaccination), RC1 (1 month after completion of PVS), RC6 (6 months after completion of PVS and before booster), RC7 (1 month after booster) and RC12 (6 months after booster and 12 months after completion of PVS).

[3] = Local and systemic toxicity (NCI CTCAE v4.03) of E39+GM-CSF vaccination; type: in vivo, human
Protocol: Standard local and systemic toxicities were collected and graded per the National Cancer Institute Common Terminology Criteria for Adverse Events, v4.03 toxicity scale. For the vaccine series (one vaccine/month for six months), patients were monitored closely for one hour after vaccine inoculation with questioning, serial exams and vital signs every 15 minutes to observe for a hypersensitivity reaction. Systemic toxicity and inoculation site local reactions were also determined after 48-72 hours.

E41: FRα-derived immunogenic peptide (FRα 245-253) of previous studies (LLSLALMLL; UniProt P15328 245-253, looked up, fragment)
effect on TAL proliferation and anti-tumor function [1]: capable of enhancing tumor-associated lymphocyte (TAL) proliferation and anti-tumor function

EIWTFSTKV [E39′, EIWTFSTKV]
average LR ([2]; B1 booster (6 months after PVS)): 79.7±14.0 mm
average LR ([2]; B2 booster (12 months after PVS)): 74.1±11.5 mm

EIWTHSYKV [E39, EIWTHSYKV]
tolerability of the vaccine ([3]; E39+GM-CSF, disease-free endometrial and ovarian cancer patients): well tolerated
Local and systemic toxicities ([3]; in vivo): mild
patients experiencing grade 3 toxicity ([3]; in vivo): 1 patient
